One may read the MIC as the lowest concentration found to suppress growth.

Here are results for 17 compounds from patent publication US11180504B2 (ORCHID PHARMA LTD., priority 2016, dated 2021).

Experiment [1] deals with methicillin-sensitive Staphylococcus aureus. Nature of the experiment: MIC by broth micro-dilution (CLSI), methicillin-sensitive S. aureus. Format: cell-based. The note with it: MSSA S. aureus ATCC29213. (In broth dilution the organism is exposed to a series of concentrations in liquid medium.)
The test system of experiment [2] is carbapenem sensitive Escherichia coli. Nature of the experiment: MIC by broth micro-dilution (CLSI), carbapenem sensitive E. coli. Format: cell-based.
For experiment [3], the system named is carbapenemase producing K. pneumoniae. Nature of the experiment: MIC by broth micro-dilution (CLSI), carbapenemase producing K. pneumoniae. The note with it: Klebsiella pneumoniae, ATCCBAA1705, KPC-2 K. pneumoniae ATCC BAA-1705; read-out: MIC. Format: cell-based, Klebsiella pneumoniae.
Experiment [4] has as its system carbapenem sensitive Pseudomonas aeruginosa. Nature of the experiment: MIC by broth micro-dilution (CLSI), carbapenem sensitive P. aeruginosa. Format: cell-based.
The mark [5] stands for this setting: Staphylococcus aureus, ATCC 29213 / MSSA, read-out: MIC.
[6] abbreviates: Escherichia coli, ATCC25922, ESBL −ve E. coli ATCC25922, read-out: MIC.
The mark [7] stands for this setting: Pseudomonas aeruginosa, ATCC27853, Meropenem susceptible P. aeruginosa ATCC27853, read-out: MIC.

In brackets after ≈: the same amount, converted by molar mass. Where two headings read alike, the source gives them in different places.

With `CNCC(=O)N[C@H](C)[C@H]1C(=O)N2C(C(=O)O)=C(S[C@@H]3CN[C@H](C(=O)N4C[C@H](N)C[C@H]4c4ccccc4)C3)[C@H](C)[C@H]12` [Example 288], the MIC in experiment [1] (setting [5]) was 128 µg/mL (≈ 224 µM); in experiment [2] (setting [6]), 4 µg/mL (≈ 7.01 µM); in experiment [3], 16 µg/mL (≈ 28 µM); in experiment [4] (setting [7]) it was more than 128 µg/mL.

On to `C[C@@H](NC(=O)Cn1nnnc1C(C)(C)C)[C@H]1C(=O)N2C(C(=O)O)=C(S[C@@H]3CN[C@H](C(=O)N(C)C)C3)[C@H](C)[C@H]12` [Example 356, (4R,5S,6R)-6-((R)-1-(2-(5-tert-butyl-1H-tetrazol-1-yl)acetamido)ethyl)-3-((3S,5S)-5-(dimethylcarbamoyl)pyrrolidin-3-ylthio)-4-methyl-7-oxo-1-azabicyclo[3.2.0]hept-2-ene-2-carboxylic acid], for which the MIC in experiment [1] (setting [5]) was 4 µg/mL (≈ 7.29 µM); in experiment [2] (setting [6]), 1 µg/mL (≈ 1.82 µM); in experiment [3], 16 µg/mL (≈ 29.2 µM); in experiment [4] (setting [7]) it was more than 128 µg/mL.

On to `C[C@@H](NC(=O)Cn1cnnn1)[C@H]1C(=O)N2C(C(=O)O)=C(S[C@@H]3CN[C@H](C(=O)N4CCO[C@H](CN)C4)C3)[C@H](C)[C@H]12` [Example 460, (4R,5S,5R)-6-((R)-1-(2-(1H-tetrazol-1-yl)acetamido)ethyl)-3-((3S,5S)-5-((R)-2-(aminomethyl)morpholine-4-carbonyl)pyrrolidin-3-ylthio)-4-methyl-7-oxo-1-azabicyclo[3.2.0]hept-2-ene-2-carboxylic acid], for which the MIC worked out at 4 µg/mL (≈ 7.1 µM) in experiment [1] (setting [5]), 0.5 µg/mL (≈ 0.887 µM) in experiment [2] (setting [6]), 2 µg/mL (≈ 3.55 µM) in experiment [3] and 4 µg/mL (≈ 7.1 µM) in experiment [4] (setting [7]).

In the case of `C[C@@H](NC(=O)Cn1cnnn1)[C@H]1C(=O)N2C(C(=O)O)=C(S[C@@H]3CN[C@H](C(=O)N4CC5CCN(CCN)C5C4)C3)[C@H](C)[C@H]12` (stereo partly drawn) [Example 577, (4R,5S,6R)-6-((R)-1-(2-(1H-tetrazol-1-yl)acetamido)ethyl)-3-((3S,5S)-5-(1-(2-aminoethyl)octahydropyrrolo[3,4-b]pyrrole-5-carbonyl)pyrrolidin-3-ylthio)-4-methyl-7-oxo-1-azabicyclo[3.2.0]hept-2-ene-2-carboxylic acid], the MIC in experiment [1] (setting [5]) worked out at 4 µg/mL (≈ 6.64 µM); in experiment [2] (setting [6]) it was 0.25 µg/mL (≈ 0.415 µM); in experiment [3], 2 µg/mL (≈ 3.32 µM); in experiment [4] (setting [7]), 4 µg/mL (≈ 6.64 µM).

With `CNCC(=O)N[C@H](C)[C@H]1C(=O)N2C(C(=O)O)=C(S[C@@H]3CN[C@H](C(=O)N4CCC(N)(C(N)=O)CC4)C3)[C@H](C)[C@H]12` [Example 277], the minimum inhibitory concentration (MIC) worked out at 64 µg/mL (≈ 116 µM) in experiment [1] (setting [5]), 2 µg/mL (≈ 3.63 µM) in experiment [2] (setting [6]), 4 µg/mL (≈ 7.25 µM) in experiment [3] and 16 µg/mL (≈ 29 µM) in experiment [4] (setting [7]).

For `C[C@@H](NC(=O)Cn1cnnn1)[C@H]1C(=O)N2C(C(=O)O)=C(S[C@@H]3CN[C@H](C(=O)N4C[C@@H]5NC(=N)N[C@@H]5C4)C3)[C@H](C)[C@H]12` [Example 580, (4R,5S,6R)-6-((R)-1-(2-(1H-tetrazol-1-yl)acetamido)ethyl)-3-((3S,5S)-5-((3aR,6aS)-2-iminooctahydropyrrolo[3,4-d]imidazole-5-carbonyl)pyrrolidin-3-ylthio)-methyl-7-oxo-1-azabicyclo[3.2.0]hept-2-ene-2-carboxylic acid], the MIC worked out at 2 µg/mL (≈ 3.49 µM) in experiment [1] (setting [5]), 0.25 µg/mL (≈ 0.436 µM) in experiment [2] (setting [6]), 1 µg/mL (≈ 1.74 µM) in experiment [3] and 0.5 µg/mL (≈ 0.872 µM) in experiment [4] (setting [7]).

Consider `C[C@@H](NC(=O)Cn1cnnn1)[C@H]1C(=O)N2C(C(=O)O)=C(SC3CNC3)[C@H](C)[C@H]12` [Example 407, (4R,5S,6R)-6-((R)-1-(2-(1H-tetrazol-1-yl)acetamido)ethyl)-3-(azetidin-3-ylthio)-4-methyl-7-oxo-1-azabicyclo[3.2.0]hept-2-ene-2-carboxylic acid], for which the MIC in experiment [1] (setting [5]) amounted to 2 µg/mL (≈ 4.91 µM); in experiment [2] (setting [6]), 0.5 µg/mL (≈ 1.23 µM); in experiment [3], 1 µg/mL (≈ 2.45 µM); in experiment [4] (setting [7]) it was 8 µg/mL (≈ 19.6 µM).

Consider `C[C@@H](NC(=O)Cn1nnnc1C(F)F)[C@H]1C(=O)N2C(C(=O)O)=C(S[C@@H]3CN[C@H](C(=O)N4CC[C@@H](N)C4)C3)[C@H](C)[C@H]12` [Example 349, (4R,5S,6R)-3-((3S,5S)-5-((R)-3-aminopyrrolidine-1-carbonyl)pyrrolidin-3-ylthio)-6-((R)-1-(2-(5-(difluoromethyl)-1H-tetrazol-1-yl)acetamido)ethyl)-4-methyl-7-oxo-1-azabicyclo[3.2.0]hept-2-ene-2-carboxylic acid], for which the minimum inhibitory concentration (MIC) in experiment [1] (setting [5]) is 4 µg/mL (≈ 6.85 µM); in experiment [2] (setting [6]) it was 0.25 µg/mL (≈ 0.428 µM); in experiment [3], 4 µg/mL (≈ 6.85 µM); in experiment [4] (setting [7]) it was 32 µg/mL (≈ 54.8 µM).

As for `CNCC(=O)N[C@H](C)[C@H]1C(=O)N2C(C(=O)O)=C(S[C@@H]3CN[C@H](C(=O)N4CCC(N)(Cc5ccccc5)CC4)C3)[C@H](C)[C@H]12` [Example 275], the MIC in experiment [1] (setting [5]) is 64 µg/mL (≈ 107 µM); in experiment [2] (setting [6]), 16 µg/mL (≈ 26.7 µM); in experiment [3], 64 µg/mL (≈ 107 µM); in experiment [4] (setting [7]), more than 128 µg/mL.

For `C[C@@H](NC(=O)Cn1cnnn1)[C@H]1C(=O)N2C(C(=O)O)=C(S[C@@H]3CN[C@H](C(=O)N4C[C@H](NC(=N)N)[C@@H](O)C4)C3)[C@H](C)[C@H]12` [Example 427, (4R,5S,6R)-6-((R)-1-(2-(1H-tetrazol-1-yl)acetamido)ethyl)-3-((3S,5S)-5-((3S,4S)-3-guanidino-4-hydroxypyrrolidine-1-carbonyl)pyrrolidin-3-ylthio)-4-methyl-7-oxo-1-azabicyclo[3.2.0]hept-2-ene-2-carboxylic acid], the minimum inhibitory concentration (MIC) was 2 µg/mL (≈ 3.38 µM) in experiment [1] (setting [5]), 0.25 µg/mL (≈ 0.423 µM) in experiment [2] (setting [6]), 1 µg/mL (≈ 1.69 µM) in experiment [3] and 2 µg/mL (≈ 3.38 µM) in experiment [4] (setting [7]).

Turning to `C[C@@H](NC(=O)Cn1cnnn1)[C@H]1C(=O)N2C(C(=O)O)=C(S[C@@H]3CN[C@H](C(=O)N4C[C@H](O)[C@H](NC(=N)N)C4)C3)[C@H](C)[C@H]12` [Example 545, (4R,5S,6R)-6-((R)-1-(2-(1H-tetrazol-1-yl)acetamido)ethyl)-3-((3S,5S)-5-((3R,4S)-3-guanidino-4-hydroxypyrrolidine-1-carbonyl)pyrrolidin-3-ylthio)-4-methyl-7-oxo-1-azabicyclo[3.2.0)hept-2-ene-2-carboxylic acid], the MIC in experiment [1] (setting [5]) is 1 µg/mL (≈ 1.69 µM); in experiment [2] (setting [6]) it was 0.125 µg/mL (≈ 0.211 µM); in experiment [3], 0.5 µg/mL (≈ 0.845 µM); in experiment [4] (setting [7]), 1 µg/mL (≈ 1.69 µM).

Turning to `C[C@@H](NC(=O)Cn1cnnn1)[C@H]1C(=O)N2C(C(=O)O)=C(S[C@@H]3CN[C@H](C(=O)N4C[C@@H](N)[C@H](O)C4)C3)[C@H](C)[C@H]12` [Example 329, (4R,5S,6R)-6-((R) - 1-(2-(1H-tetrazol-1-yl)acetamido)ethyl)-3-((3S,5S)-5-((3R,4R)-3-amino-4-hydroxypyrrolidine-1-carbonyl)pyrrolidin-3-ylthio)-4-methyl-7-oxo-1-azabicyclo[3.2.0]hept-2-ene-2-carboxylic acid], the MIC was determined as 8 µg/mL (≈ 14.6 µM) in experiment [1] (setting [5]), 0.25 µg/mL (≈ 0.455 µM) in experiment [2] (setting [6]), 2 µg/mL (≈ 3.64 µM) in experiment [3] and 8 µg/mL (≈ 14.6 µM) in experiment [4] (setting [7]).

With `Cc1nnnn1CC(=O)N[C@H](C)[C@H]1C(=O)N2C(C(=O)O)=C(S[C@@H]3CN[C@H](C(=O)N4CC[C@@H](N)C4)C3)[C@H](C)[C@H]12` [Example 331, (4R,5S,6R)-3-((3S,5S)-5-((R)-3-aminopyrrolidine-1-carbonyl)pyrrolidin-3-ylthio)-4-methyl-6-((R) - 1-(2-(5-methyl-1H-tetrazal-1-yl)acetamido)ethyl)-7-oxo-1-azabicyclo[3.2.0]hept-2-ene-2-carboxylic acid], the MIC is 4 µg/mL (≈ 7.3 µM) in experiment [1] (setting [5]), 0.25 µg/mL (≈ 0.457 µM) in experiment [2] (setting [6]), 4 µg/mL (≈ 7.3 µM) in experiment [3] and 8 µg/mL (≈ 14.6 µM) in experiment [4] (setting [7]).

`C[C@@H](NC(=O)Cn1cnnn1)[C@H]1C(=O)N2C(C(=O)O)=C(S[C@@H]3CN[C@H](C(=O)N4C[C@H](N)C[C@H]4C(=O)N4CC[C@@H](N)C4)C3)[C@H](C)[C@H]12` [Example 447, (4R,5S,6R)-6-((R)-1-(2-(1H-tetrazol-1-yl)acetamido)ethyl)-3-((3S,5S)-5-((2S,4R)-4-amino-2-((R)-3-aminopyrrolidine-1-carbonyl)pyrrolidine-1-carbonyl)pyrrolidin-3-ylthio)-4-methyl-7-oxo-1-azabicyclo[3.2.0]hept-2-ene-2-carboxylic acid]: the minimal inhibitory concentration (MIC) is 16 µg/mL (≈ 24.8 µM) in experiment [1] (setting [5]), 0.5 µg/mL (≈ 0.774 µM) in experiment [2] (setting [6]), 4 µg/mL (≈ 6.19 µM) in experiment [3] and 16 µg/mL (≈ 24.8 µM) in experiment [4] (setting [7]).

Regarding `C[C@@H](NC(=O)Cn1cnnn1)[C@H]1C(=O)N2C(C(=O)O)=C(S[C@@H]3CN[C@H](C(=O)N4CCC5CNCCC54)C3)[C@H](C)[C@H]12` (single isomer, unassigned) [Example 438], the MIC was 2 µg/mL (≈ 3.49 µM) in experiment [1] (setting [5]), 0.25 µg/mL (≈ 0.436 µM) in experiment [2] (setting [6]), 1 µg/mL (≈ 1.74 µM) in experiment [3] and 2 µg/mL (≈ 3.49 µM) in experiment [4] (setting [7]).

`C[C@@H](NC(=O)Cn1cnnn1)[C@H]1C(=O)N2C(C(=O)O)=C(SC3COC4(CNC4)C3)[C@H](C)[C@H]12` (single isomer, unassigned) [Example 557]: the MIC worked out at 4 µg/mL (≈ 8.63 µM) in experiment [1], 0.125 µg/mL (≈ 0.27 µM) in experiment [2] (ESBL −ve E. coli ATCC25922), 4 µg/mL (≈ 8.63 µM) in experiment [3] and 16 µg/mL (≈ 34.5 µM) in experiment [4] (Meropenem susceptible P. aeruginosa ATCC27853).

Turning to `COc1nnnn1CC(=O)N[C@H](C)[C@H]1C(=O)N2C(C(=O)O)=C(S[C@@H]3CN[C@H](C(=O)N4CC[C@@H](N)C4)C3)[C@H](C)[C@H]12` [Example 386, (4R,5S,6R)-3-((3S,5S)-5-((R)-3-aminopyrrolidine-1-carbooyl)pyrrolidin-3-ylthio)-6-((R)-1-(2-(5-methoxy-1H-tetrazol-1-yl)acetamido)ethyl)-4-methyl-7-oxo-1-azabicyclo[3.2.0]hept-2-ene-2-carboxylic acid], the MIC in experiment [1] (setting [5]) worked out at 2 µg/mL (≈ 3.55 µM); in experiment [2] (setting [6]), 0.125 µg/mL (≈ 0.222 µM); in experiment [3], 8 µg/mL (≈ 14.2 µM); in experiment [4] (setting [7]), 8 µg/mL (≈ 14.2 µM).
